Measured values as given in US20260021119A1, “TETRACYCLINE DERIVATIVES” (ICM (INSTITUT DU CERVEAU ET DE LA MOELLE ÉPINIÈRE), priority 2022, published 2026).

Assays:
[1] = system: microglia cells (TNF α release under LPS); test: Anti-inflammatory effect in microglia, TNF α release inhibition under LPS exposure; assay type: cell-based; conditions: for Anti inflammatory effects (IC 50 in μM): TNF α release inhibition under LPS exposure, determined graphically
Experimental: Microglia is in charge of the protection of the neurons. However, under stress conditions, microglia cells are responsible of inflammatory phenomena, leading eventually to the death of the neurons. The anti-inflammatory effects of 5 μM and 20 μM of compound of formula (B) presented in Example 1, of 5 μM and 20 μM of compound of formula (Ia) according to the present invention and of 50 μM of doxycycline (DOX) were evaluated, compared to the effect of 2.5 μM of dexamethasone (DEX). Microglia is in charge of the protection of the neurons. However, under stress conditions, microglia cells are responsible of inflammatory phenomena, leading eventually to the death of the neurons. The anti-inflammatory effects of 10 μM and 20 μM of compound of formula (C) (“10 μM (C)” and “20 μM (C)”) and of 10 μM and 20 μM of compound of formula (Ia) according to the present invention (“10 μM (Ia)” and “20 μM (Ia)”) were evaluated, compared to the effect of 2.5 μM of dexamethasone (“DEX”). The properties of tetracycline derivatives, including the compound of formula (Ia) according to the present invention, were compared regarding the neuroprotection, anti-inflammatory effects, anti-aggregant activity, and antibiotic activity. The properties were evaluated as described herein above. EC50s, IC50s determined graphically, *Rescue of dopamine neurons from spontaneous oxidative stress; ** TNF α release inhibition under LPS exposure, ^#Weak antibiotic activity on only 1 of the 3 bacterial strains (i.e. S aureus). ##Strong antibiotic activity on all 3 bacterial strains. ^###Significant antibiotic activity on two bacterial strains.

[2] = system: p-tau (phosphorylated tau protein at Ser202, Thr205 residues); test: p-tau (AT8) expression in cultured cortical neurons under oxidative stress; assay type: cell-based, mouse; parameters: key to Reduction of the % of p-tau+ somas: a favorable response, synonymous with a decrease in the number of p-tau+ cell bodies; ++: a favorable response, synonymous with a decrease in the number of p-tau+ cell bodies; +++=reference level; an unfavorable response is represented by a sign “−”, synonymous with an elevation of the number of p-tau+ cell bodies; overexpression of p-tau in cortical cell bodies: dose or concentration left out as unconfirmed
Experimental: A culture model of cortical neurons from mouse embryonic brain was used, in which neuronal cells were subjected to a maturation step until day in vitro (div) 7, before being gradually exposed to phenol red formulated DMEM/Nutrient mixture F12 Ham supplemented with 20 μg/mL of insulin, and 2 μM of the NMDA receptor blocker MK-801 (DF12i).
Precisely, after 4 days of exposure to DF12i, between 10-15% of surviving neurons show a very strong AT8 immunosignal in their somas while only 1 to 1.5% of neuronal cell bodies are found immunopositive under conditions where oxidative stress is repressed by treatment with bovine apotransferrin (APO; 100 µg/mL, Sigma Aldrich), a glycoprotein with iron chelating properties. Likewise, overexpression of p-tau in cortical cell bodies is reduced by the two non-antibiotic tetracyclines compound of formula (C) ([…]) and compound of formula (Ib) ([…]): see the following Table: […]

E. coli ATCC 25922 = test: MIC, broth dilution (Example 3); assay type: cell-based; conditions: Escherichia coli, ATCC25922; 18 h at 37° C., MH broth
Experimental: (§1) Bacterial strains used in this study were: S. aureus (ATCC25923), E. coli (ATCC25922), E. faecalis (ATCC29212) and P. aeruginosa (PA01). Strains were maintained at −80° C. in 15% (v/v) glycerol for cryoprotection. Bacteria were routinely grown in Mueller-Hinton (MH) broth at 37° C.
(§2) The susceptibility of bacterial strains to antibiotics and compounds was determined in microplates using the standard broth dilution method in accordance with the recommendations of the Comité de 1′Antibiogramme de la Société Française de Microbiologie (CA-SFM). (Members of the SFM Antibiogram Committee, R. Int. J. Antimicrob. Agents 2003, 21, 364). Briefly, the Minimal Inhibitory Concentrations (MICs) were determined with an inoculum of 10^5 CFU in 200 μL of MH broth containing two-fold serial dilutions of each drug. […] To determine all MICs, the measurements were independently repeated in triplicate.
(§3) The compound of formula (Ia) according to the invention was tested against clinical isolates Gram-bacteria (P. aeruginosa, E. coli) and Gram+ bacteria (S. aureus, E. faecalis). Minimum inhibitory concentrations (MIC) were tentatively determined and compared to known antibiotic tetracyclines (doxycycline, demeclocycline, chlortetracycline) and to the compound of formula (B) disclosed in Example 1 of the present application. The test was reproduced twice and the average MIC were calculated.

E. faecalis ATCC 29212 = test: MIC, broth dilution (Example 3); assay type: cell-based; conditions: Enterococcus faecalis, ATCC29212; 18 h at 37° C., MH broth
Experimental: as §1, §2, §3

S. aureus ATCC 25923 = test: MIC, broth dilution (Example 3); assay type: cell-based
Experimental: as §1, §2, §3

P. aeruginosa PA01 = test: MIC, broth dilution (Example 3); assay type: cell-based; conditions: Pseudomonas aeruginosa, 18 h at 37° C., MH broth
Experimental: as §1, §2, §3

alpha-synuclein = alpha-synuclein (Homo sapiens, UniProt P37840); test: alpha-synuclein fibrils by transmission electron microscopy (TEM); assay type: biochemical; conditions: 20 μM compound; vs alpha-synuclein alone
Experimental: By using transmission electron microscopy (TEM) we studied the alpha-synuclein aggregation in the presence of 20 μM of the compound of formula (Ia) in the same condition described above. For the samples mounting, 5 μL of a 7 μM alpha-synuclein solution were adsorbed onto a formvar carbon film coated copper grids (Electron Microscopy Sciences) and stained with uranyless.

[3] = 10 μM and 20 μM, compared to dexamethasone 2.5 μM

NC(=O)C1=C(O)CC2CC3C(=C(O)C2C1=O)C(=O)c1c(O)ccc(Cl)c1[C@H]3O (stereo partly shown) [Compound of formula (C)]
anti-inflammatory effect (LPS) [1, 3]: unable to counteract the inflammatory process
Anti inflammatory effects (IC 50 in μM) [1]: no
overexpression of p-tau in cortical cell bodies [2]: reduced
Reduction of the % of p-tau+ somas ([2]; compounds 3 μM, APO 100 μg/mL, mouse cortical cultures exposed div 7-11 to DF12i): +++

C[C@H]1c2cccc(O)c2C(=O)C2=C(O)C3C(=O)C(C(N)=O)=C(O)C[C@@H]3[C@@H](O)[C@@H]21 (stereo partly drawn) [Compound of formula (Ia), (4aS,5R,5aR,6R)-3,5,10,12-tetrahydroxy-6-methyl-1,11-dioxo-1,4,4a,5,5a,6,11,12a-octahydrotetracene-2-carboxamide]
MIC (E. coli ATCC 25922): > 200 µM
MIC (E. faecalis ATCC 29212): > 200 µM
activity on S. aureus compared with compound of formula (B) (S. aureus ATCC 25923): less active
MIC (S. aureus ATCC 25923; Staphylococcus aureus, ATCC25923, 18 h at 37° C., MH broth): > 200 µM
MIC (P. aeruginosa PA01): > 200 µM
amount of alpha-synuclein fibril (TEM) (alpha-synuclein): clearly decreases
anti-inflammatory effect (LPS) ([1]; 5 μM and 20 μM, superior to doxycycline 50 μM and compound of formula (B)): counteracts inflammatory process
anti-inflammatory effect (LPS) [1, 3]: counteracts inflammatory process
Anti inflammatory effects (IC 50 in μM) [1]: yes
